From BindingDB's records for doi:10.1021/jm960124f (1996) come the findings set out here.

For the test, the target named is Aldo-keto reductase family 1 member A1 (Bos taurus). As to the kind of experiment: Evaluated for inhibition of Aldehyde reductase 1.

Molecules are shown by their SMILES.

With `O=C(O)Cn1nc2c(c(C(=O)O)c1=O)CCc1ccccc1-2` [2-Carboxymethyl-3-oxo-2,3,5,6-tetrahydro-benzo[h]cinnoline-4-carboxylic acid], the IC50 was found to be 161 µM.

Compound `O=C(O)Cn1nc2c(c(C(=O)O)c1=O)Cc1ccccc1-2` [2-Carboxymethyl-3-oxo-3,5-dihydro-2H-indeno[1,2-c]pyridazine-4-carboxylic acid] yielded an IC50 of 136 µM.

`Cc1cc(C)c2c(c1)-c1nn(CCC(=O)O)c(=O)cc1CC2` [3-(7,9-Dimethyl-3-oxo-5,6-dihydro-3H-benzo[h]cinnolin-2-yl)-propionic acid] yielded an IC50 of 289 µM.

The compound `O=C(O)CCCn1nc2c(cc1=O)CCc1ccccc1-2` [4-(3-Oxo-5,6-dihydro-3H-benzo[h]cinnolin-2-yl)-butyric acid] yielded an IC50 of 92.6 µM.

In the case of `O=C(O)Cn1nc2c(cc1=O)Cc1ccccc1-2` [(3-Oxo-3,5-dihydro-indeno[1,2-c]pyridazin-2-yl)-acetic acid], the IC50 is 107 µM.

`O=C(O)Cn1nc2c(cc1=O)CCc1ccccc1-2` [(3-Oxo-5,6-dihydro-3H-benzo[h]cinnolin-2-yl)-acetic acid] returned an IC50 of 156 µM.

`Cc1cc(C)c2c(c1)-c1nn(CC(=O)O)c(=O)cc1CC2` [(7,9-Dimethyl-3-oxo-5,6-dihydro-3H-benzo[h]cinnolin-2-yl)-acetic acid]: half-maximal inhibition (IC50) was put at 295 µM.
